Measurements reported in patent US20260138976A1 (Hoffmann-La Roche Inc., priority 2022, published 2026).

Columns and labels:
[1] = target: T1, DGKζ (hDGKzeta(1-928)-N-His) (Homo sapiens, UniProt Q13574); experiment: In vitro DGK inhibition assay, DGKzeta ADP Glo (in house); format: biochemical; conditions: 2 nM DGKζ, 50 μM ATP, 125 uM DLG in liposomes, 1 hour reaction
T1 construct: hDGKzeta(1-928)-N-His; His (N); made in house; host or cells: Sf21 insect cells (baculovirus)
Protocol: (§1) DGKα and ζ kinases use ATP to phosphorylate the substrate 1,2-dilauroyl-sn-glycerol (DLG, incorporated in the liposomes). ATP is converted to ADP as a result of this enzymatic reaction. After the kinase reaction, an ATP-depletion reagent is added to terminate the kinase reaction and deplete any remaining ATP, leaving only ADP. Second, a detection reagent is added to simultaneously convert ADP to ATP and allow the newly synthesized ATP to be converted to light using a coupled luciferase/luciferin reaction.
(§2) Full length DGKα and ζ were expressed in Sf21 insect cells by infecting the cells with the baculovirus stock at MOI of 2. Purification of both enzymes was performed as previously described by Takahashi et al., PeerJ, 2018 (Takahashi, D.; Sakane, F. Expression and purification of human diacylglycerol 5 kinase alpha from baculovirus-infected insect cells for structural studies. PeerJ2018, 6, No. e5449).
(§3) A concentrated liposome solution was prepared in assay buffer without DTT and BSA: 2 mM of DLG in 21 mM of total liposome (2 mM DLG/8 mM PS/11 mM PC). The reaction mixtures contain the assay buffer with a final DLG concentration of 125 uM ATP concentrations of 25 μM (for DGKA assay) or 50 μM (for DGKZ assay). The reactions were started by addition of DGK α and ζ kinases at 4 nM and 2 nM final concentrations, respectively. After 1 hour reaction, the amount of ADP formed was detected with the ADP-Glo kinase assay (Promega) according to the manufacturer instructions. Compounds were added in 11-points dose response, starting at […], 1:3 dilutions, with a final DMSO concentration of 2%. The multidrop combi was used as a liquid handler and luminescence was read with 0.5 s by the envision reader (PE).

[2] = target: T2, DGK ζ kinase (Homo sapiens, UniProt Q13574); experiment: DGKzeta kinase ADP Glo assay run by Reaction Biology Corp.; format: biochemical; conditions: 2 nM kinase, 50 µM ATP, 500 μM DLG, 10-dose duplicate
T2 construct: purchased Reaction Biology Corp. (contract assay service)
T2 sequence (Q13574 whole entry): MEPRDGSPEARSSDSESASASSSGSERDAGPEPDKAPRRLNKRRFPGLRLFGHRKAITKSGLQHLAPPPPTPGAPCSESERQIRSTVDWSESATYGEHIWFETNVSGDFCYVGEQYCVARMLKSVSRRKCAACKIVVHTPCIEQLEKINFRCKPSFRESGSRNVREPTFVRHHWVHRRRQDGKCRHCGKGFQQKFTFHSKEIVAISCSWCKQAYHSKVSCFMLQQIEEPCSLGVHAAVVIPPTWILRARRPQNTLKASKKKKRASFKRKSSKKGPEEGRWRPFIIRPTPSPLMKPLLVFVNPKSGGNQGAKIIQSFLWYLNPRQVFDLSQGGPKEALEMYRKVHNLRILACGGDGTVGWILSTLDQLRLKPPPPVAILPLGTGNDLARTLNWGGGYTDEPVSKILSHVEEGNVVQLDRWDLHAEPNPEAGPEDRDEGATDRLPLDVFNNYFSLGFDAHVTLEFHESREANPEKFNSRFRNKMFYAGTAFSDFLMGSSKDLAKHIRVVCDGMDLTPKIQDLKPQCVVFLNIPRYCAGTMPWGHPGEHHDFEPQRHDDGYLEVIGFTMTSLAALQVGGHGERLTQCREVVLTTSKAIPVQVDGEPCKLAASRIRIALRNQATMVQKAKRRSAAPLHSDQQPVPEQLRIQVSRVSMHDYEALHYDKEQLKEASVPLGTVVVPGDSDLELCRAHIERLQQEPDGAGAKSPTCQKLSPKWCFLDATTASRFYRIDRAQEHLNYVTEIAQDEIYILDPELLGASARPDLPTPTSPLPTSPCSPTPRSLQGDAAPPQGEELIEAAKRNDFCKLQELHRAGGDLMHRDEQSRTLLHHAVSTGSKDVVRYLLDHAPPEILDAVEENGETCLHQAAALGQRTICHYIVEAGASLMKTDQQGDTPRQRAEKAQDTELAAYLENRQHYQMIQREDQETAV
Protocol: (§4) DGK α and ζ kinases use ATP to phosphorylate the substrate 1,2-dilauroyl-sn-glycerol (DLG). ATP is converted to ADP as a result of this enzymatic reaction.
(§5) After the kinase reaction, an ATP-depletion reagent is added to terminate the kinase reaction and deplete any remaining ATP, leaving only ADP. Second, a detection reagent is added to simultaneously convert ADP to ATP and allow the newly synthesized ATP to be converted to light using a coupled luciferase/luciferin reaction.
(§6) DGK α and ζ kinase ADP Glo assays were ran by Reaction Biology Corp., 1 Great Valley Parkway, Suite 2, Malvern, 19355, PA, USA. Information provided by the service provider are the following: DGK α and ζ kinases were used at 2 nM final concentration. Reactions were carried out at 50 µM ATP. 500 μM of the substrate DLG (Dilauroyl-sn-glycerol) was used.

[3] = target: T3, DGKα (hDGKalpha(1-735)-N-His) (Homo sapiens, UniProt P23743); experiment: In vitro DGK inhibition assay, DGKalpha ADP Glo (in house); format: biochemical; conditions: 4 nM DGKα, 25 μM ATP, 125 uM DLG in liposomes, 1 hour reaction
T3 construct: hDGKalpha(1-735)-N-His; His (N); made in house; host or cells: Sf21 insect cells (baculovirus)
T3 sequence (P23743 whole entry): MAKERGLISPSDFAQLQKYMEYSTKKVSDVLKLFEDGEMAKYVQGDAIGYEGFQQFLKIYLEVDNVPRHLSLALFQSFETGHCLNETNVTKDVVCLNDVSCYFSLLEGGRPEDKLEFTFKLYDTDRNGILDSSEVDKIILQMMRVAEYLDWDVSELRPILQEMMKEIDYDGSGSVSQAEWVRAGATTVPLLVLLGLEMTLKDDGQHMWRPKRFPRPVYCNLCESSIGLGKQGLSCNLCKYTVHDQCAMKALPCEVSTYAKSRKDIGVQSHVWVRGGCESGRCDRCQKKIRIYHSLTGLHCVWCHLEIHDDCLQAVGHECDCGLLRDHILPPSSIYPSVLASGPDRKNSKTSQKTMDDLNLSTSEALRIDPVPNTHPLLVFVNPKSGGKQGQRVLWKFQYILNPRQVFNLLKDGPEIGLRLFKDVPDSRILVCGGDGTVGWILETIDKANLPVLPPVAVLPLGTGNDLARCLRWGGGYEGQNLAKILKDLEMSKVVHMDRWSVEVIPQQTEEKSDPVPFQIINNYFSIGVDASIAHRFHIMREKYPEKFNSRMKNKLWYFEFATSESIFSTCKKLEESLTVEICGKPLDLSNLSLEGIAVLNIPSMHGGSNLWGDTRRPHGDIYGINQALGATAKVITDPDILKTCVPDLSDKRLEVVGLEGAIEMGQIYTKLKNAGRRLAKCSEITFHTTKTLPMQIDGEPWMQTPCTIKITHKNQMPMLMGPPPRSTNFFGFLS
Protocol: as §1, §2, §3

[4] = system: primary human T-cells; experiment: Proliferation assay (5 days, CellTiter-Glo, CD3-stimulated T-cells); format: cell-based
How it was run: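 Expanded primary human T-cells, 100 k cells/well, were stimulated with plate-coated CD3 antibody (donor-titrated) and given compound in a 5 or 6 pt dose response from 20 μM or 10 μM final top, 0.2% DMSO final. ATP was read by CellTiter-Glo after 5 days. EC50 and Emax were reported as % of 20 μM reference compound A1.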

[5] = target: T4, DGK α kinase (Homo sapiens, UniProt P23743); experiment: DGKalpha kinase ADP Glo assay run by Reaction Biology Corp.; format: biochemical; conditions: 2 nM kinase, 50 µM ATP, 500 μM DLG, 10-dose duplicate
T4 construct: purchased Reaction Biology Corp. (contract assay service)
T4 sequence (P23743 whole entry): as above
Protocol: as §4, §5, §6

T1 sequence (Q13574 whole entry): as the sequence (Q13574 whole entry) above

CN1CCCC(F)(c2nnc(-c3ccc4c(c3)N(Cc3ccc(-c5noc(C(F)(F)F)n5)cc3)C(=O)[C@@H](N)CS4(=O)=O)o2)C1 (stereo partly drawn) [Example 49, (3R)-3-amino-7-[5-(3-fluoro-1-methyl-3-piperidyl)-1,3,4-oxadiazol-2-yl]-1,1-dioxo-5-[[4-[5-(trifluoromethyl)-1,2,4-oxadiazol-3-yl]phenyl]methyl]-2,3-dihydro-1λ^6,5-benzothiazepin-4-one]
IC50 [1]: 3100 nM | IC50 [2]: 365 nM | IC50 [3]: 17800 nM | Emax proliferation (% activation) ([4]; CD3 condition, normalised to DMSO (neutral) and 20 μM reference compound A1 = 100%): 86 % activation | EC50 ([4]; Homo sapiens, T-cell, 120 h, CD3-stimulated primary human T-cells, 5 days, CellTiter-Glo, fitted sigmoidal curve, read-out: Tcell Proliferation CD3 EC50): 122 nM | IC50 [5]: 227 nM
